Assay results reported in PubChem BioAssay AID1963441 (Molecular Pharmacology Branch, DTP, NCI, 2024).
Several values for one entry are separate records, joined by “and”; a condition that tells them apart may be missing. Equal values may be shown once.

Test system: NCI-H1876 complex spheroid growth, % test/control
Test: Anticancer human tumor NCI-H1876 cell line growth inhibition [Asc];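 further: compound exposure lasted 7 days starting three days after seeding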;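 on viability, T/C: 100% = DMSO vehicle control wells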
Settings: for viability, T/C: stronger effect = lower value; active means viability on the fitted dose curve at most 10% of control; inactive means the rest
How it was run: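 Tumor cells were grown as complex spheroids with human endothelial cells (HUVEC) and human mesenchymal stem cells as stroma. Agents were tested alone and in combination, in half-log steps down from the clinical Cmax, or from 10 microM where Cmax was unknown.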

[1] = curve of first compound, second compound 0.0316 µM
[2] = curve of first compound, second compound 0.1 µM
[3] = curve of first compound, second compound 0.316 µM
[4] = curve of first compound, second compound 1 µM
[5] = second compound 0.0316 µM, first compound 0.00949 µM
[6] = second compound 0.0316 µM, first compound 0.03 µM
[7] = second compound 0.0316 µM, first compound 0.0949 µM
[8] = second compound 0.0316 µM, first compound 0.3 µM
[9] = second compound 0.1 µM, first compound 0.00949 µM
[10] = second compound 0.1 µM, first compound 0.03 µM
[11] = second compound 0.1 µM, first compound 0.0949 µM
[12] = second compound 0.1 µM, first compound 0.3 µM
[13] = second compound 0.316 µM, first compound 0.00949 µM
[14] = second compound 0.316 µM, first compound 0.03 µM
[15] = second compound 0.316 µM, first compound 0.0949 µM
[16] = second compound 0.316 µM, first compound 0.3 µM
[17] = second compound 1 µM, first compound 0.00949 µM
[18] = second compound 1 µM, first compound 0.03 µM
[19] = second compound 1 µM, first compound 0.0949 µM
[20] = second compound 1 µM, first compound 0.3 µM
[21] = curve of first compound, second compound 0.00316 µM
[22] = curve of first compound, second compound 0.01 µM
[23] = second compound 0.00316 µM, first compound 0.00949 µM
[24] = second compound 0.00316 µM, first compound 0.03 µM
[25] = second compound 0.00316 µM, first compound 0.0949 µM
[26] = second compound 0.00316 µM, first compound 0.3 µM
[27] = second compound 0.00316 µM, first compound 0.949 µM
[28] = second compound 0.00316 µM, first compound 3 µM
[29] = second compound 0.01 µM, first compound 0.00949 µM
[30] = second compound 0.01 µM, first compound 0.03 µM
[31] = second compound 0.01 µM, first compound 0.0949 µM
[32] = second compound 0.01 µM, first compound 0.3 µM
[33] = second compound 0.01 µM, first compound 0.949 µM
[34] = second compound 0.01 µM, first compound 3 µM
[35] = second compound 0.0316 µM, first compound 0.949 µM
[36] = second compound 0.0316 µM, first compound 3 µM
[37] = second compound 0.1 µM, first compound 0.949 µM
[38] = second compound 0.1 µM, first compound 3 µM
[39] = second compound 0.316 µM, first compound 0.949 µM
[40] = second compound 0.316 µM, first compound 3 µM
[41] = second compound 1 µM, first compound 0.949 µM
[42] = second compound 1 µM, first compound 3 µM

NC(=O)C(=Cn1cnc(-c2cc(C(F)(F)F)cc(C(F)(F)F)c2)n1)c1cncnc1 + Cc1c(S(C)(=O)=O)c(-c2cc(F)cc(N3CCN(c4ccc(NS(=O)(=O)c5ccc(NC(CCN6CCC(C(=O)OCCCP(=O)(O)O)CC6)CSc6ccccc6)c(S(=O)(=O)C(F)(F)F)c5)cc4)CC3)c2)c(-c2ccc(Cl)cc2)n1C(C)C
0.149 µM: IC50 (curve of first compound, second compound 10 µM)
0.223 µM: IC50 [4]
inactive: viability, T/C (second compound 0.0316 µM, first compound 0.000949 µM) 105% | viability, T/C (second compound 0.0316 µM, first compound 0.003 µM) 102% | viability, T/C [5] 94.4% | viability, T/C [6] 97.8% | viability, T/C [7] 105% | viability, T/C [8] 55.1% | viability, T/C (second compound 0.1 µM, first compound 0.000949 µM) 99.3% | viability, T/C (second compound 0.1 µM, first compound 0.003 µM) 112% | viability, T/C [9] 113% | viability, T/C [10] 106% | viability, T/C [11] 101% | viability, T/C [12] 52.5% | viability, T/C (second compound 0.316 µM, first compound 0.000949 µM) 102% | viability, T/C (second compound 0.316 µM, first compound 0.003 µM) 107% | viability, T/C [13] 91.3% | viability, T/C [14] 97.1% | viability, T/C [15] 96.3% | viability, T/C [16] 45.8% | viability, T/C (second compound 1 µM, first compound 0.000949 µM) 99.6% | viability, T/C (second compound 1 µM, first compound 0.003 µM) 96.9% | viability, T/C [17] 89.7% | viability, T/C [18] 96% | viability, T/C [19] 88.7% | viability, T/C [20] 36.6% | viability, T/C (second compound 3.16 µM, first compound 0.000949 µM) 101% | viability, T/C (second compound 3.16 µM, first compound 0.003 µM) 92.5% | viability, T/C (second compound 3.16 µM, first compound 0.00949 µM) 95.5% | viability, T/C (second compound 3.16 µM, first compound 0.03 µM) 92.9% | viability, T/C (second compound 3.16 µM, first compound 0.0949 µM) 69.4% | viability, T/C (second compound 3.16 µM, first compound 0.3 µM) 27.9% | viability, T/C (second compound 10 µM, first compound 0.000949 µM) 109% | viability, T/C (second compound 10 µM, first compound 0.003 µM) 99.9% | viability, T/C (second compound 10 µM, first compound 0.00949 µM) 90% | viability, T/C (second compound 10 µM, first compound 0.03 µM) 92.5% | viability, T/C (second compound 10 µM, first compound 0.0949 µM) 66.9% | viability, T/C (second compound 10 µM, first compound 0.3 µM) 23.1%
0.273 µM: IC50 [3]
0.163 µM: IC50 (curve of first compound, second compound 3.16 µM)
> 0.3 µM: IC50 [1] | IC50 [2]

Cc1nc(N2CCC3(CC2)COC(C)C3N)c(CO)nc1Sc1ccnc(N)c1Cl (stereo not given)
inactive: viability, T/C (compound 0.00949 µM) 102% and 105% and 103% | viability, T/C (compound 0.03 µM) 92.8% and 87.9% and 89.1% | viability, T/C (compound 0.0949 µM) 103% and 84.3% and 92.5% | viability, T/C (compound 0.3 µM) 79.5% and 84.7% and 86% | viability, T/C (compound 0.949 µM) 78.4% and 84% and 94.5% | viability, T/C (compound 3 µM) 75.5% and 87.1% and 88.2%
> 3 µM: IC50 (curve of compound)

Cc1nc(N2CCC3(CC2)COC(C)C3N)c(CO)nc1Sc1ccnc(N)c1Cl (stereo not given) + CNC(C)C(=O)NC1CN(S(=O)(=O)c2cccc(S(=O)(=O)N3CCC4CCC(C(=O)NC(c5ccccc5)c5ccccc5)N4C(=O)C(NC(=O)C(C)NC)C3)c2)CCC2CCC(C(=O)NC(c3ccccc3)c3ccccc3)N2C1=O
inactive: viability, T/C [23] 100% | viability, T/C [24] 92.7% | viability, T/C [25] 91.2% | viability, T/C [26] 80.7% | viability, T/C [27] 92.6% | viability, T/C [28] 79.8% | viability, T/C [29] 91.7% | viability, T/C [30] 91.9% | viability, T/C [31] 92.7% | viability, T/C [32] 81.2% | viability, T/C [33] 85.7% | viability, T/C [34] 92.1% | viability, T/C [5] 94.4% | viability, T/C [6] 86.1% | viability, T/C [7] 98.8% | viability, T/C [8] 84.8% | viability, T/C [35] 87.6% | viability, T/C [36] 89% | viability, T/C [9] 93.9% | viability, T/C [10] 88.4% | viability, T/C [11] 82.9% | viability, T/C [12] 86.5% | viability, T/C [37] 86.4% | viability, T/C [38] 84.3% | viability, T/C [13] 94% | viability, T/C [14] 93.8% | viability, T/C [15] 87.9% | viability, T/C [16] 92.7% | viability, T/C [39] 85.9% | viability, T/C [40] 77.2% | viability, T/C [17] 94% | viability, T/C [18] 91.8% | viability, T/C [19] 94.4% | viability, T/C [20] 90.5% | viability, T/C [41] 84.5% | viability, T/C [42] 74.8%
> 3 µM: IC50 [21] | IC50 [22] | IC50 [1] | IC50 [2] | IC50 [3] | IC50 [4]

Cn1ncnc1[C@H]1c2n[nH]c(=O)c3cc(F)cc(c23)N[C@@H]1c1ccc(F)cc1
> 0.1 µM: IC50 (curve of compound)
inactive: viability, T/C (compound 0.000316 µM) 93.5% and 106% and 102% | viability, T/C (compound 0.001 µM) 90.9% and 86.1% and 110% | viability, T/C (compound 0.00316 µM) 95.7% and 88.1% and 105% | viability, T/C (compound 0.01 µM) 102% and 96.1% and 94.6% | viability, T/C (compound 0.0316 µM) 98.4% and 99.3% and 105% | viability, T/C (compound 0.1 µM) 86% and 101% and 97.6%

CCN1C(C(=O)NC23CCC(C(=O)O)(CC2)CC3)C(c2cccc(Cl)c2F)C2(C(=O)Nc3cc(Cl)ccc32)C12CCCCC2 (stereo not given) + CNC(C)C(=O)NC1CN(S(=O)(=O)c2cccc(S(=O)(=O)N3CCC4CCC(C(=O)NC(c5ccccc5)c5ccccc5)N4C(=O)C(NC(=O)C(C)NC)C3)c2)CCC2CCC(C(=O)NC(c3ccccc3)c3ccccc3)N2C1=O
> 3 µM: IC50 [21] | IC50 [22] | IC50 [1] | IC50 [2] | IC50 [3] | IC50 [4]
inactive: viability, T/C [23] 115% | viability, T/C [24] 98% | viability, T/C [25] 111% | viability, T/C [26] 101% | viability, T/C [27] 123% | viability, T/C [28] 107% | viability, T/C [29] 110% | viability, T/C [30] 99.9% | viability, T/C [31] 104% | viability, T/C [32] 101% | viability, T/C [33] 120% | viability, T/C [34] 105% | viability, T/C [5] 105% | viability, T/C [6] 101% | viability, T/C [7] 115% | viability, T/C [8] 104% | viability, T/C [35] 132% | viability, T/C [36] 109% | viability, T/C [9] 92.5% | viability, T/C [10] 111% | viability, T/C [11] 101% | viability, T/C [12] 102% | viability, T/C [37] 122% | viability, T/C [38] 103% | viability, T/C [13] 104% | viability, T/C [14] 102% | viability, T/C [15] 98.3% | viability, T/C [16] 105% | viability, T/C [39] 131% | viability, T/C [40] 107% | viability, T/C [17] 112% | viability, T/C [18] 91.8% | viability, T/C [19] 109% | viability, T/C [20] 110% | viability, T/C [41] 128% | viability, T/C [42] 97.9%
